Source: patent US5932580A, “PDGF receptor kinase inhibitory compounds their preparation and compositions” (priority 1997, dated 1999)
“Also recorded” adds a separate entry of the source. Where two headings read alike, the source gives them in different places.

Tests used:
PDGFR = PDGFR autophosphorylation, isolated membranes or intact Swiss 3T3 cells; format: biochemical; conditions: read-out: IC50 (50% inhibition of phosphorylation) PDGFR
Method: Assay of receptor autophosphorylation in intact 3T3 cells: Confluent Swiss 3T3 cells in 24-well plates (Nunc) were incubated for 20-24 hours in serum-free DMEM. Subsequently, tyrphostins were added at concentrations ranging from 0 to 100 μM (final DMSO concentration, 0.5%) and the incubation was continued for 6-8 hours. The cells were then stimulated with 100 ng/ml PDGF-BB for 5 min at room temperature or 600 ng/ml EGF for 2.5 min on ice. The growth factor treatment was terminated by washing twice with ice-cold PBS and the cells were scraped off the wells in 60 μl lysis buffer containing 20 mM Hepes (pH 7.4), 150 mM NaCl, 1% Triton X-100, 10 mM sodium pyrophosphate, 50 mM NaF, 2 mM sodium-o-vanadate, 20 μm zinc acetate, 10 nM EDTA, 2 mM [ethylenebis(oxyethilenenitrilo)] tetraacetic acid, 1 mM phenylmethylsulfonyl fluoride, and 5 μg/ml leupeptin.
The cell lysates were clarified by centrifugation (cooled microfuge, 17,000 rpm, 15 min) and analyzed by SDS-PAGE (6.5% gels) and immunoblotting with anti-phosphotyrosine antibodies (either PY 20, ICN, and subsequently a peroxidase-coupled secondary antibody, or RC20-peroxidase conjugate, Affinity, Nottingham, United Kingdom). The blots were developed with a chemiluminescence detection system (Western Light, Tropix, or ECL, Amersham). In some experiments PDGF receptors were immunoprecipitated with PDGF-R3 or DIG-1 antibodies as described prior to the analysis by immunoblotting with anti-phosphotyrosine antibodies.
Membrane autophosphorylation assays: Membranes were prepared from confluent cultures of Swiss 3T3 cells as described. For measuring receptor autophosphorylation, 10 μg membrane protein per assay were incubated for 20 min on ice in the presence of 1.2 μg/ml EGF or 2 μg/ml PDGF, or both; 50 mM Hepes (pH 7.5); and 3 mm MnCl2 (final concentrations) in a volume of 45 μl. […] For quantification of radioactivity in electrophoresis gels, a Phospho-Imager (Molecular Dynamics, Fuji, or Bio-Rad) was used according to the instructions of the manufacturers. […]

[1] = tested on: porcine aortic smooth muscle cells (SMC); experiment: Inhibition of cell proliferation and recovery, porcine SMC; format: cell-based; conditions: for inhibitory effect on porcine SMC growth (in words) / toxicity on SMC / inhibition at 10 µM: 10 μM; for inhibitory effect on porcine SMC growth (in words): FIGS. 3-7; for toxicity on SMC / reversibility of the inhibitory effect / recovery of SMC growth after washout: porcine SMC; for inhibition at 10 µM: Sus scrofa; for reversibility of the inhibitory effect / recovery of SMC growth after washout: cultures washed, cells allowed to recover
Method: Smooth muscle cells (SMC) were obtained under aseptic conditions from porcine abdominal aortas, and human internal mammary arteries (IMA). Specimens from the operating room were transferred on ice to the tissue culture room. Each artery was cut open and the endothelial surface mechanically scraped. […] The tissue fragments were then placed in an incubator at 37° C. under 9% CO2 atmosphere until SMC outgrowth was detected (typically within 3-7 days). […] For experiments testing the effect of tyrphostins on growth inhibition and recovery (see below), SMC from passages 1-3 were replated in 15 mm wells pretreated with 3 μg/cm^2 fibronectin (Biological Industries, Kibbutz Beit Haemek, Israel) at 15,000 cells/well.
Inhibition of cell proliferation and recovery: Monolayer cell growth inhibition and recovery experiments were repeated 3 or 4 times. Each experiment was performed in triplicate. […] Cultures were treated with a tyrphostin (10 μM) dissolved in 0.1% DMSO on days 1 and 3. On day 6, cultures were washed and the cells allowed to recover. Typically cells were counted on days 3 and 5 for inhibition, and on days 7, 10 and 15 for recovery, other schedules were also employed as reported below.

EGFR = molecular target: T1, EGFR (Mus musculus, UniProt Q01279); experiment: EGFR autophosphorylation, isolated membranes or intact Swiss 3T3 cells; format: biochemical; conditions: read-out: IC50 (50% inhibition of phosphorylation) EGFR
T1 construct: Membranes were prepared from confluent cultures of Swiss 3T3 cells; endogenous in cells; host or cells: Swiss 3T3 (obtained from E. Rozengurt, London)
Method: Membrane autophosphorylation assays: Membranes were prepared from confluent cultures of Swiss 3T3 cells as described [22]. For measuring receptor autophosphorylation, 10 μg membrane protein per assay were incubated for 20 min on ice in the presence of 1.2 μg/ml EGF or 2 μg/ml PDGF, or both; 50 mM Hepes (pH 7.5); and 3 mm MnCl2 (final concentrations) in a volume of 45 μl. In order to test the effects and determine the IC50 value of various tyrphostins, these were added in a volume of 0.5 μl (in DMSO; final concentration, 0.5%) 15 min before addition of the growth factors, in a range of concentrations. […] For quantification of radioactivity in electrophoresis gels, a Phospho-Imager (Molecular Dynamics, Fuji, or Bio-Rad) was used according to the instructions of the manufacturers. […]

PDGF β-receptor = molecular target: T2, PDGF β-receptor (Sus scrofa, UniProt F1RL75); experiment: PDGF induced PDGFR autophosphorylation in intact SMC cells; format: cell-based; conditions: porcine arterial SMC; for inhibition of PDGF-BB induced PDGF β-receptor tyrosine-phosphorylation: tyrphostin 10 μM, 60 min preincubation, PDGF-BB 100 ng/ml
T2 construct: PDGF-BB stimulated; immunoprecipitated with PDGF beta-receptor specific antiserum R3
Method: Effect of tyrphostins on PDGF induced PDGFR autophosphorylation in intact SMC cells: Subconfluent porcine arterial smooth muscle cells, cultivated in Dulbecco's modified Eagle's medium (DMEM) supplemented with 15% fetal calf serum (FCS), were synchronized for 20 hours in a medium containing 2% FCS. […] After stimulation, the cells were solubilized in Nonidet P-40 (1%) containing lysis buffer.
The analysis of PDGF p-receptor phosphorylation was performed as follows. Cell lysates were subjected to immunoprecipitation using the PDGF β-receptor specific antiserum R3 [5]. The percipitates were subjected to polyacrylamide (7.5%) gel electrophoresis in presence of sodium deducyl sulfate (SDS-PAGE) and were thereafter blotted onto a nitrocellulose membrane (Hybond C-EXTRA, Amersham). Phosphorylated proteins were detected by immunoblotting using the horseradish-peroxidase conjugated phosphotyrosine antibody RC20H (Transduction Laboratories), followed by chemoluminescence-based detection (ECL, Amersham) and autoradiography.
Detection of receptor proteins was performed as follows. Cell lysates were subjected to immunoprecipitation using the PDGF β-receptor specific antiserum R3 [5], as described above, and the percipitates washed three times and thereafter subjected to SDS-PAGE (7.5%) and blotting onto a nitrocellulose membrane (Hybond C-EXTRA, Amersham). Receptor proteins were detected by immunoblotting using the horseradish-peroxidase conjugated donkey anti-rabbit antibody (Amersham), followed by chemoluminescence-based detection (ECL, Amersham) and autoradiography.

[2] = 120 h, by day 5 (day given for AG1295 and AG1992), read-out: reduction in SMC count / inhibition of SMC growth over control
[3] = Table 2, read-out: mean reduction in SMC count compared to control cells (maximal inhibition in SMC growth)

T2 sequence (F1RL75 109-1181): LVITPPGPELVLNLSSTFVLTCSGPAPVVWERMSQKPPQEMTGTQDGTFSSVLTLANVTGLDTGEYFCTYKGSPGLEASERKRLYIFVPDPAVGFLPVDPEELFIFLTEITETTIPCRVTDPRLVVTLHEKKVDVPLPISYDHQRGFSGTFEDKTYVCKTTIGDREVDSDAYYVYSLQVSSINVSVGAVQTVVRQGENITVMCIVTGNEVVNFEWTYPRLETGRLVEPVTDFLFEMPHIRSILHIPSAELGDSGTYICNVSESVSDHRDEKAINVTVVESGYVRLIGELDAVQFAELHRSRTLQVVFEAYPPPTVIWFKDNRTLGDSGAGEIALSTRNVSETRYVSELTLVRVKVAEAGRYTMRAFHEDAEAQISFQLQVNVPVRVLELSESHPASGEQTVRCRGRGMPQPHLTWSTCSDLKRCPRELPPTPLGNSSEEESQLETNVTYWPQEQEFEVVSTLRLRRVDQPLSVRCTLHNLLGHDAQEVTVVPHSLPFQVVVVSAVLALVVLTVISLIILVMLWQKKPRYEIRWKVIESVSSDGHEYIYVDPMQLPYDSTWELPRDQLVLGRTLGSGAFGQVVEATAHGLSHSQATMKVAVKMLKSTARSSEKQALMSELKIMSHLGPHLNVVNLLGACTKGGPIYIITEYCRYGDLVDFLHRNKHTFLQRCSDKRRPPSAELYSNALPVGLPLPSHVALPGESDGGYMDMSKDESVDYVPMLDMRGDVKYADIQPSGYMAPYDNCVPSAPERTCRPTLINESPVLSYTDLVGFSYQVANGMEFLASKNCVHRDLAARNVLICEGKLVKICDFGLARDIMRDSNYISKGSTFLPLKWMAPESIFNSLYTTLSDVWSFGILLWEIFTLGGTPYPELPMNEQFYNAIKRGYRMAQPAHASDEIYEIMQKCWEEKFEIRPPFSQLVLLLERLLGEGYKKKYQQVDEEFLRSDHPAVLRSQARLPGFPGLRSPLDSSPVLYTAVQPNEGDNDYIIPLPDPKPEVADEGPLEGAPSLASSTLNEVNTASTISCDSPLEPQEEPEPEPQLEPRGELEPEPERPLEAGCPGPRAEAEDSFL
T1 sequence (Q01279 25-1210): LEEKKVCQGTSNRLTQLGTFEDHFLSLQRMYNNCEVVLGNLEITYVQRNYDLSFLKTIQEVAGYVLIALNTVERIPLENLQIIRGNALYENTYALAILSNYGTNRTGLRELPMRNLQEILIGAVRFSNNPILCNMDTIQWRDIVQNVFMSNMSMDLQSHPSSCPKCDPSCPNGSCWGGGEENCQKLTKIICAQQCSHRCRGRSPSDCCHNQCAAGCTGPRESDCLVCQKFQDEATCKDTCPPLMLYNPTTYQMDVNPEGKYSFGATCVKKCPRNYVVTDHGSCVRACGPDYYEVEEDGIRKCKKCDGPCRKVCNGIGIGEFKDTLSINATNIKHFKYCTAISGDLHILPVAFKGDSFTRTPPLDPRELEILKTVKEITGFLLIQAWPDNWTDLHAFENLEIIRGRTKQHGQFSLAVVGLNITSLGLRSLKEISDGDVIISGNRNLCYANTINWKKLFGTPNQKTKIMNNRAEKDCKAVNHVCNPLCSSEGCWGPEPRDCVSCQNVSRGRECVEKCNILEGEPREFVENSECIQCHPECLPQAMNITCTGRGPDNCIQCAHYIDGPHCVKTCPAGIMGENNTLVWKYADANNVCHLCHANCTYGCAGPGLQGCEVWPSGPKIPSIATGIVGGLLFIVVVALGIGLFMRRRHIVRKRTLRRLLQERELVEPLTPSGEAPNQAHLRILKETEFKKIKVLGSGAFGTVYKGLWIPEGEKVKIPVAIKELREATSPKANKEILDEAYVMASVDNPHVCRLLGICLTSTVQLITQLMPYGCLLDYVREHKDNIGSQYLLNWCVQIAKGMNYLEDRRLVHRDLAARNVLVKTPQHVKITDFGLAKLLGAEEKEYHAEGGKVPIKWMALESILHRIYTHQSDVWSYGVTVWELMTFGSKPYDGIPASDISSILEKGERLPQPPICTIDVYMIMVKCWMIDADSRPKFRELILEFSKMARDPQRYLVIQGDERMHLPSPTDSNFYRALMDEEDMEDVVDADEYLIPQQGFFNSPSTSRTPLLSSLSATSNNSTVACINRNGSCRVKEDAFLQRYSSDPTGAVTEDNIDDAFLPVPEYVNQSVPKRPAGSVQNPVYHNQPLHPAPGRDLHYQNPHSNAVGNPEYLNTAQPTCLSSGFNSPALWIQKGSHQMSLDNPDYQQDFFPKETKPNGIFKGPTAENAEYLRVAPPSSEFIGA

SMILES | IC50 (PDGFR) [µM] | inhibitory effect on porcine SMC growth (in words) [1] | toxicity on SMC [1] | inhibition at 10 µM [1, 2] [%] | inhibition at 10 µM ([1]; FIG. 7 experiment, read-out: maximal inhibitory effect on porcine SMC proliferation) [%] | inhibition at 10 µM [1, 3] [%] | reversibility of the inhibitory effect / recovery of SMC growth after washout [1] | IC50 (EGFR) [µM] | level of PDGF β-receptor protein present in the cells (PDGF β-receptor) | inhibition of PDGF-BB induced PDGF β-receptor tyrosine-phosphorylation (PDGF β-receptor) | inhibition at 10 µM ([1]; FIG. 6 experiment, read-out: maximal inhibitory effect on porcine SMC proliferation) [%]
Cc1nc2cc3nc(-c4cccs4)cnc3cc2n1C [AG1992] | 1 | very potent growth inhibition effect; also recorded: very effective proliferation inhibitors | low lasting toxicity | 87 | 89 | 87 | completely reversible | > 30 | without affecting the level | completely inhibited | –
Cc1nc2cc3nc(-c4ccccc4)cnc3cc2n1C [AG1851] | 5 | very potent growth inhibition effect; also recorded: most effective inhibitory response; also recorded: highly effective in blocking proliferation | without having a substantial toxic effect; also recorded: low lasting toxicity | 79 | – | 79 | completely reversible; also recorded: normal cell growth appeared immediately after treatment with AG1851 was discontinued | > 30 | without affecting the level | completely inhibited | 78
